≈ marks a conversion by molar mass, not a printed value. Read-outs that look alike come from different tables or passages of the source.
What was measured:
[1] = Hepatocyte Stability Assay, human; type: in vitro ADME; settings: cryopreserved hepatocytes in suspension; human hepatocytes; read-out: Human hepatocyte clearance
[2] = Solubility Determination Assay in PBS pH 1.6 and pH 7.4; type: physicochemical; settings: PBS buffer, aqueous buffer, kinetic from dmso stock
Summary of the method: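 Compounds from 10 mM DMSO stock diluted into PBS pH 1.6 or pH 7.4 (15 μL into 485 μL), stirred 2 hours, then filtered. Filtrate quantified by LC-MS/MS against a standard of known concentration with internal standard; single determination.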

[3] = PBS pH 1.6, 25° C., read-out: Aq. Solubility at pH = 1.6
[4] = PBS pH 7.4, 25° C., read-out: Aq. Solubility at pH = 7.4

C[C@@H](CO)n1cnc2c(-n3ccnc3)nc(-c3ccc(C(F)(F)F)cn3)cc2c1=O [Compound 162, (S)-3-(1-hydroxypropan-2-yl)-8-(1H-imidazol-1-yl)-6-(5-(trifluoromethyl)pyridin-2-yl)pyrido[3,4-d]pyrimidin-4(3H)-one]
CLint scaled at 1 μM [1]: < 20 mL/min/kg
solubility at 2 h [2, 3]: ≥ 1 µM
solubility at 2 h [2, 4]: ≥ 1 µM

C[C@@H](CO)n1cnc2c(-c3cnn(C)c3)nc(-c3ccc(Cl)cc3)cc2c1=O [Compound 27]
CLint scaled at 1 μM [1]: < 20 mL/min/kg
solubility at 2 h [2, 3]: 0.1 to 1 µM (≈ 0.0396 to 0.396 µg/mL)
solubility at 2 h [2, 4]: 0.1 to 1 µM (≈ 0.0396 to 0.396 µg/mL)

C[C@@H](CO)n1cnc2c(N3CCCCC3)nc(-c3ccc(Cl)cc3)cc2c1=O [Compound 177, (S)-6-(4-chlorophenyl)-3-(1-hydroxypropan-2-yl)-8-(piperidin-1-yl)pyrido[3,4-d]pyrimidin-4(3H)-one]
CLint scaled at 1 μM [1]: 20 to 50 mL/min/kg
solubility at 2 h [2, 3]: ≥ 1 µM
solubility at 2 h [2, 4]: 0.1 to 1 µM (≈ 0.0399 to 0.399 µg/mL)

CC(C)(O)Cn1cnc2c(-c3cccnc3)nc(-c3ccc(C(F)(F)F)cc3)cc2c1=O [Compound 16]
CLint scaled at 1 μM [1]: < 20 mL/min/kg
solubility at 2 h [2, 3]: ≥ 1 µM
solubility at 2 h [2, 4]: ≥ 1 µM

Cn1cc(-c2nc(-c3ccc(C(F)(F)F)nc3)cc3c(=O)n(C[C@@H](O)C(F)(F)F)cnc23)cn1 [Compound 110, (R)-8-(1-methyl-1H-pyrazol-4-yl)-3-(3,3,3-trifluoro-2-hydroxypropyl)-6-(6-(trifluoromethyl)pyridin-3-yl)pyrido[3,4-d]pyrimidin-4(3H)-one]
CLint scaled at 1 μM [1]: < 20 mL/min/kg
solubility at 2 h [2, 3]: < 0.1 µM
solubility at 2 h [2, 4]: < 0.1 µM

O=c1c2cc(-c3ccc(C(F)(F)F)nc3)nc(-c3cccnc3)c2ncn1[C@H]1COC[C@@H]1O [Compound 117]
CLint scaled at 1 μM [1]: < 20 mL/min/kg
solubility at 2 h [2, 3]: ≥ 1 µM
solubility at 2 h [2, 4]: ≥ 1 µM

O=c1c2cc(-c3ccc(C(F)(F)F)cn3)nc(-c3cccnc3)c2ncn1[C@H]1COC[C@H]1O [Compound 145, 3-((3S,4S)-4-hydroxytetrahydrofuran-3-yl)-8-(pyridin-3-yl)-6-(5-(trifluoromethyl)pyridin-2-yl)pyrido[3,4-d]pyrimidin-4(3H)-one]
CLint scaled at 1 μM [1]: < 20 mL/min/kg
solubility at 2 h [2, 3]: ≥ 1 µM
solubility at 2 h [2, 4]: 0.1 to 1 µM (≈ 0.0455 to 0.455 µg/mL)

O=c1c2cc(-c3ccc(Cl)cc3)nc(-c3cccnc3)c2ncn1[C@H]1COC[C@@H]1O [Compound 125, 6-(4-chlorophenyl)-3-((3S,4R)-4-hydroxytetrahydrofuran-3-yl)-8-(pyridin-3-yl)pyrido[3,4-d]pyrimidin-4(3H)-one]
CLint scaled at 1 μM [1]: < 20 mL/min/kg
solubility at 2 h [2, 3]: ≥ 1 µM
solubility at 2 h [2, 4]: ≥ 1 µM

C[C@H](O)Cn1cnc2c(-c3cnn(C)c3)nc(-c3ccc(C(F)(F)F)nc3)cc2c1=O [Compound 109, (S)-3-(2-hydroxypropyl)-8-(1-methyl-1H-pyrazol-4-yl)-6-(6-(trifluoromethyl)pyridin-3-yl)pyrido[3,4-d]pyrimidin-4(3H)-one]
CLint scaled at 1 μM [1]: < 20 mL/min/kg
solubility at 2 h [2, 3]: 0.1 to 1 µM (≈ 0.043 to 0.43 µg/mL)
solubility at 2 h [2, 4]: 0.1 to 1 µM (≈ 0.043 to 0.43 µg/mL)

Cn1cc(-c2nc(-c3ccc(C(F)(F)F)nc3)cc3c(=O)n([C@@H]4COC[C@H]4O)cnc23)cn1 [Compound 115, 3-((3R,4S)-4-hydroxytetrahydrofuran-3-y1)-8-(1-methyl-1H-pyrazol-4-y1)-6-(6-(trifluoromethyl)pyridin-3-yl)pyrido[3,4-d]pyrimidin-4(3H)-one]
CLint scaled at 1 μM [1]: < 20 mL/min/kg
solubility at 2 h [2, 3]: 0.1 to 1 µM (≈ 0.0458 to 0.458 µg/mL)
solubility at 2 h [2, 4]: 0.1 to 1 µM (≈ 0.0458 to 0.458 µg/mL)

C[C@@H](CO)n1cnc2c(-n3ccnc3)nc(-c3ccc(OC(F)(F)F)cc3)cc2c1=O [Compound 44, (S)-3-(1-hydroxypropan-2-yl)-8-(1H-imidazol-1-yl)-6-(4-(trifluoromethoxy)-phenyl)pyrido[3,4-d]pyrimidin-4(3H)-one]
CLint scaled at 1 μM [1]: < 20 mL/min/kg
solubility at 2 h [2, 4]: 0.1 to 1 µM (≈ 0.0431 to 0.431 µg/mL)

C[C@@H](CO)n1cnc2c(-c3cnsc3)nc(-c3ccc(C(F)(F)F)cn3)cc2c1=O [Compound 102, (S)-3-(1-hydroxypropan-2-y1)-8-(isothiazol-4-yl)-6-(5-(trifluoromethyl)pyridin-2-yl)pyrido[3,4-d]pyrimidin-4(3H)-one]
CLint scaled at 1 μM [1]: < 20 mL/min/kg
solubility at 2 h [2, 3]: 0.1 to 1 µM (≈ 0.0433 to 0.433 µg/mL)
solubility at 2 h [2, 4]: 0.1 to 1 µM (≈ 0.0433 to 0.433 µg/mL)

O=c1c2cc(-c3ccc(Cl)cc3)nc(-c3cccnc3)c2ncn1C[C@H](O)C(F)(F)F (single isomer, unassigned) [185 enantiomer 2]
CLint scaled at 1 μM [1]: < 20 mL/min/kg
solubility at 2 h [2, 3]: ≥ 1 µM
solubility at 2 h [2, 4]: 0.1 to 1 µM (≈ 0.0447 to 0.447 µg/mL)

C[C@@H](CO)n1cnc2c(-c3cccnc3)nc(-c3cnc(C(F)(F)F)nc3)cc2c1=O [Compound 86]
CLint scaled at 1 μM [1]: < 20 mL/min/kg
solubility at 2 h [2, 3]: ≥ 1 µM
solubility at 2 h [2, 4]: ≥ 1 µM

CC(C)(O)Cn1cnc2c(-c3cnsc3)nc(-c3ccc(C(F)(F)F)nc3)cc2c1=O [Compound 54]
CLint scaled at 1 μM [1]: < 20 mL/min/kg
solubility at 2 h [2, 3]: ≥ 1 µM
solubility at 2 h [2, 4]: ≥ 1 µM

C[C@@H](CO)n1cnc2c(-c3cccc(F)c3)nc(-c3ccc(C(F)(F)F)cn3)cc2c1=O [Compound 47, (S)-8-(3-fluorophenyl)-3-(1-hydroxypropan-2-yl)-6-(5-(trifluoromethyl)pyridin-2-yl)pyrido[3,4-d]pyrimidin-4(3H)-one]
CLint scaled at 1 μM [1]: < 20 mL/min/kg
solubility at 2 h [2, 4]: 0.1 to 1 µM (≈ 0.0444 to 0.444 µg/mL)

Cn1cc(-c2nc(-c3ccc(C(F)(F)F)cn3)cc3c(=O)n([C@H]4COC[C@H]4O)cnc23)cn1 [Compound 151, 3-((3S,4S)-4-hydroxytetrahydrofuran-3-yl)-8-(1-methyl-1H-pyrazol-4-yl)-6-(5-(trifluoromethyl)pyridin-2-yl)pyrido[3,4-d]pyrimidin-4(3H)-one]
CLint scaled at 1 μM [1]: < 20 mL/min/kg
solubility at 2 h [2, 3]: 0.1 to 1 µM (≈ 0.0458 to 0.458 µg/mL)
solubility at 2 h [2, 4]: 0.1 to 1 µM (≈ 0.0458 to 0.458 µg/mL)

C[C@@H](O)Cn1cnc2c(-c3cccnc3)nc(-c3ccc(C(F)(F)F)cn3)cc2c1=O [Compound 144, (R)-3-(2-hydroxypropyl)-8-(pyridin-3-yl)-6-(5-(trifluoromethyl)pyridin-2-yl)pyrido[3,4-d]pyrimidin-4(3H)-one]
CLint scaled at 1 μM [1]: < 20 mL/min/kg
solubility at 2 h [2, 3]: ≥ 1 µM
solubility at 2 h [2, 4]: ≥ 1 µM

C[C@@H](CO)n1cnc2c(-c3cccnc3)nc(-c3ccc(OC(F)(F)F)cc3)cc2c1=O [Compound 22]
CLint scaled at 1 μM [1]: < 20 mL/min/kg
solubility at 2 h [2, 3]: ≥ 1 µM
solubility at 2 h [2, 4]: ≥ 1 µM

Cc1ccc(-c2cc3c(=O)n([C@@H](C)CO)cnc3c(-c3cccnc3)n2)cc1 [Compound 17, (S)-3-(1-hydroxypropan-2-yl)-8-(pyridin-3-yl)-6-(p-tolyl)pyrido[3,4-d]pyrimidin-4(3H)-one]
CLint scaled at 1 μM [1]: 20 to 50 mL/min/kg
solubility at 2 h [2, 3]: ≥ 1 µM
solubility at 2 h [2, 4]: ≥ 1 µM

Cn1cc(-c2nc(-c3ccc(Cl)cc3)cc3c(=O)n([C@H]4COC[C@H]4O)cnc23)cn1 [Compound 92]
CLint scaled at 1 μM [1]: < 20 mL/min/kg
solubility at 2 h [2, 3]: 0.1 to 1 µM (≈ 0.0424 to 0.424 µg/mL)
solubility at 2 h [2, 4]: < 0.1 µM

O=c1c2cc(-c3ccc(C(F)(F)F)cn3)nc(-c3cccnc3)c2ncn1[C@@H]1COC[C@H]1O [Compound 140, 3-((3R,4S)-4-hydroxytetrahydrofuran-3-yl)-8-(pyridin-3-yl)-6-(5-(trifluoromethyl)pyridin-2-yl)pyrido[3,4-d]pyrimidin-4(3H)-one]
CLint scaled at 1 μM [1]: < 20 mL/min/kg
solubility at 2 h [2, 3]: ≥ 1 µM
solubility at 2 h [2, 4]: ≥ 1 µM

CC(C)(O)Cn1cnc2c(-c3cn[nH]c3)nc(-c3ccc(C(F)(F)F)nc3)cc2c1=O [Compound 51]
CLint scaled at 1 μM [1]: < 20 mL/min/kg
solubility at 2 h [2, 3]: 0.1 to 1 µM (≈ 0.043 to 0.43 µg/mL)
solubility at 2 h [2, 4]: 0.1 to 1 µM (≈ 0.043 to 0.43 µg/mL)

— US20230295152A1 (SENDA BIOSCIENCES, INC., priority 2019, published 2023)
